Counter-ions that a name gives are not always drawn.

The record followed here is patent US7084165B2, “Monoamine reuptake inhibitors for treatment of CNS disorders” (Pfizer Inc, priority 1999, dated 2006).

For the compound `CNC(C)c1ccccc1Oc1ccc(Cl)cc1` (stereo not shown) (as salt: HCl), the melting point was 147 to 149 °C.

`CNC(C)c1cc(F)ccc1Oc1ccc(Cl)c(Cl)c1` (stereo not shown) yielded a melting point of 127 °C.

Take `CNCc1cc(OC)ccc1Oc1ccc(Cl)c(Cl)c1` (as salt: HCl) (hydrate or solvate): the melting point fell in the range of 140 to 141 °C.

In turn, `CN(C)Cc1cc(C(F)(F)F)ccc1Oc1ccc(Cl)c(Cl)c1.O=C(O)/C=C\C(=O)O` returned a melting point of 127 to 128 °C.

In turn, `CNCc1cc(Br)ccc1Oc1ccc(Cl)c(Cl)c1` (as salt: HCl) returned a melting point of 206 to 210 °C.

`CNCc1cc(F)ccc1Oc1ccc(Cl)cc1` (as salt: HCl) registered a melting point of 208 to 209 °C.

`CC(=O)Nc1ccc(Oc2ccc(Cl)c(Cl)c2)c(CN(C)C)c1.Cl` came in with a melting point of 199 to 202 °C.

In the case of `CNCc1cc(OC)c(OC)cc1Oc1ccc(Cl)c(Cl)c1` (as salt: HCl), the melting point lay in the range of 143 to 145 °C.

With `Cc1ccc(Oc2ccc(Cl)c(Cl)c2)c(CN(C)C)c1` (as salt: HCl), the melting point lay within 196 to 198 °C.

For the compound `CN(C)Cc1cc(F)ccc1Oc1ccc(Cl)c(Cl)c1` (as salt: HCl) [Example 13, [2-(3,4-Dichlorophenoxy)-5-fluorobenzyl]-dimethylamine], the melting point was in the range of 174 to 175 °C.

In turn, `Cl.Fc1ccc(Oc2ccc(Cl)c(Cl)c2)c(C2CCCN2)c1` (stereo not shown) registered a melting point of 171 to 173 °C.

For `NCc1cc(F)ccc1Oc1ccc(Cl)c(Cl)c1` (as salt: hydrochloride) [Example 57, 2-(3,4-DICHLOROPHENOXY)-5-FLUORO-BENZYLAMINE], the melting point is 190 to 194 °C.

`CNCc1ccc(Cl)cc1Oc1ccc(Cl)c(Cl)c1` came in with a melting point of 132 to 133 °C.

`CC(c1ccccc1Oc1ccc(Cl)c(Cl)c1)N(C)C` (stereo not shown) (as salt: HCl) registered a melting point of 130 to 133 °C.

`CNCc1ccc(C(F)(F)F)cc1Oc1ccc(Cl)c(Cl)c1` had a melting point of 164 to 166 °C.

`CNCc1ccc(Br)cc1Oc1ccc(Cl)c(Cl)c1` (as salt: HCl) came in with a melting point of 185 to 189 °C.
